Active and inactive are the calls of the source. The rule behind the calls is not given here.
Legend:
[1] = target: Serine/threonine-protein kinase PLK1 (Homo sapiens, UniProt P53350); experiment: Inhibition of full length human PLK1 at 20 uM using casein as substrate after 40 mins in presence of [gamma-33P]-ATP by radiometric assay relative to control
[2] = target: Receptor-type tyrosine-protein kinase FLT3 (Homo sapiens) (UniProt P36888); experiment: Inhibition of wild-type human partial length FLT3 (V592 to Y969 residues) expressed in bacterial expression system assessed as residual activity at 1 uM by Kinomescan method relative to control
BT-483 [3] = experiment: Upregulation of Bax protein expression in human BT-483 cells at 5 to 10 uM by Western blot analysis; type: functional, cell-based
BT-483 [4] = experiment: Upregulation of Bad protein expression in human BT-483 cells at 5 to 10 uM by Western blot analysis; type: functional, cell-based
[5] = target: Receptor tyrosine-protein kinase erbB-2 (Homo sapiens) (UniProt P04626); experiment: Inhibition of wild-type human partial length ERBB2 (K646 to V1225 residues) expressed in mammalian expression system assessed as residual activity at 1 uM by Kinomescan method relative to control
[6] = target: Mitogen-activated protein kinase kinase kinase 4 (Homo sapiens) (UniProt Q9Y6R4); experiment: Inhibition of wild-type human partial length MAP3K4 (G1319 to E1608 residues) expressed in bacterial expression system assessed as residual activity at 1 uM by Kinomescan method relative to control
[7] = target: MAP kinase-activated protein kinase 2 (Homo sapiens) (UniProt P49137); experiment: Inhibition of wild-type human partial length MAPKAPK2 (V48 to D345 residues) expressed in bacterial expression system assessed as residual activity at 1 uM by Kinomescan method relative to control
Chain of MAP kinase-activated protein kinase 2 (Homo sapiens) (P49137 whole entry, looked up, the tested form may be a part): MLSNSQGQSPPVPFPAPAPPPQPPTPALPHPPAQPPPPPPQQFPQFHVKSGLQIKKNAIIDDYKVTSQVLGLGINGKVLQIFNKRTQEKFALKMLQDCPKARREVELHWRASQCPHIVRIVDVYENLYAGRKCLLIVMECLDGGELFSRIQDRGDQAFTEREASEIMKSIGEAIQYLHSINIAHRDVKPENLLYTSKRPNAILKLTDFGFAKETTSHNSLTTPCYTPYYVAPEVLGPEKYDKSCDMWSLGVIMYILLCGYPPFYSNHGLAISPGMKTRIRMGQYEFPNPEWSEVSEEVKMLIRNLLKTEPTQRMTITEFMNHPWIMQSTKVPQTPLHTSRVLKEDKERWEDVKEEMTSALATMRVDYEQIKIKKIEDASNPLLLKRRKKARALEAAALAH

[8] = target: Mitogen-activated protein kinase 8 (Homo sapiens) (UniProt P45983); experiment: Inhibition of wild-type human full length JNK1 (M1 to Q384 residues) expressed in mammalian expression system assessed as residual activity at 1 uM by Kinomescan method relative to control
[9] = target: Serine/threonine-protein kinase Nek1 (Homo sapiens) (UniProt Q96PY6); experiment: Inhibition of wild-type human partial length NEK1 (M1 to K278 residues) expressed in bacterial expression system assessed as residual activity at 1 uM by Kinomescan method relative to control
[10] = target: Serine/threonine-protein kinase PAK 1 (Homo sapiens) (UniProt Q13153); experiment: Inhibition of wild-type human partial length PAK1 (S149 to H545 residues) expressed in bacterial expression system assessed as residual activity at 1 uM by Kinomescan method relative to control
Chain of Serine/threonine-protein kinase PAK 1 (Homo sapiens) (Q13153 whole entry, the tested form may be a part): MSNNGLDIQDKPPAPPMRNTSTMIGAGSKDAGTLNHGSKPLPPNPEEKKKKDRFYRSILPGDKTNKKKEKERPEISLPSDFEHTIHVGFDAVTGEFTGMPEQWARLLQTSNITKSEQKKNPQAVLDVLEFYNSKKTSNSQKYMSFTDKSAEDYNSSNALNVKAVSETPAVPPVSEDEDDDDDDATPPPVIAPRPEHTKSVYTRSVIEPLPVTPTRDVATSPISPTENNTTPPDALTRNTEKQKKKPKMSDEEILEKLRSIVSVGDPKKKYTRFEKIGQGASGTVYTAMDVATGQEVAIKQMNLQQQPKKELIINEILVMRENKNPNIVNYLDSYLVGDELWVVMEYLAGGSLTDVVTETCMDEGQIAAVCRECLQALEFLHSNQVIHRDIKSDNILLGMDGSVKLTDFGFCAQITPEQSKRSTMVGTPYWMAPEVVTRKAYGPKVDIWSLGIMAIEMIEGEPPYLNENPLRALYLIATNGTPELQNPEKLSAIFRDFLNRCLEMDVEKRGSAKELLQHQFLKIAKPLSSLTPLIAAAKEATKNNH

[11] = target: Serine/threonine-protein kinase pim-3 (Homo sapiens) (UniProt Q86V86); experiment: Inhibition of wild-type human partial length PIM3 (G16 to A317 residues) expressed in bacterial expression system assessed as residual activity at 1 uM by Kinomescan method relative to control
[12] = target: Serine/threonine-protein kinase DCLK1 (Homo sapiens) (UniProt O15075); experiment: Inhibition of wild-type human partial length DCAMKL1 (L270 to A662 residues) expressed in mammalian expression system assessed as residual activity at 1 uM by Kinomescan method relative to control
[13] = target: Insulin receptor (Homo sapiens) (UniProt P06213); experiment: Inhibition of wild-type human partial length INSR (P997 to E1318 residues) expressed in mammalian expression system assessed as residual activity at 1 uM by Kinomescan method relative to control
[14] = target: Inhibitor of nuclear factor kappa-B kinase subunit alpha (Homo sapiens) (UniProt O15111); experiment: Inhibition of wild-type human full length IKK-alpha (M1 to E745 residues) expressed in mammalian expression system assessed as residual activity at 1 uM by Kinomescan method relative to control
[15] = target: Hepatocyte growth factor receptor (Homo sapiens) (UniProt P08581); experiment: Inhibition of wild-type human partial length MET (D1010 to S1367 residues) expressed in bacterial expression system assessed as residual activity at 1 uM by Kinomescan method relative to control
Chain of Hepatocyte growth factor receptor (Homo sapiens) (P08581 whole entry, the tested form may be a part): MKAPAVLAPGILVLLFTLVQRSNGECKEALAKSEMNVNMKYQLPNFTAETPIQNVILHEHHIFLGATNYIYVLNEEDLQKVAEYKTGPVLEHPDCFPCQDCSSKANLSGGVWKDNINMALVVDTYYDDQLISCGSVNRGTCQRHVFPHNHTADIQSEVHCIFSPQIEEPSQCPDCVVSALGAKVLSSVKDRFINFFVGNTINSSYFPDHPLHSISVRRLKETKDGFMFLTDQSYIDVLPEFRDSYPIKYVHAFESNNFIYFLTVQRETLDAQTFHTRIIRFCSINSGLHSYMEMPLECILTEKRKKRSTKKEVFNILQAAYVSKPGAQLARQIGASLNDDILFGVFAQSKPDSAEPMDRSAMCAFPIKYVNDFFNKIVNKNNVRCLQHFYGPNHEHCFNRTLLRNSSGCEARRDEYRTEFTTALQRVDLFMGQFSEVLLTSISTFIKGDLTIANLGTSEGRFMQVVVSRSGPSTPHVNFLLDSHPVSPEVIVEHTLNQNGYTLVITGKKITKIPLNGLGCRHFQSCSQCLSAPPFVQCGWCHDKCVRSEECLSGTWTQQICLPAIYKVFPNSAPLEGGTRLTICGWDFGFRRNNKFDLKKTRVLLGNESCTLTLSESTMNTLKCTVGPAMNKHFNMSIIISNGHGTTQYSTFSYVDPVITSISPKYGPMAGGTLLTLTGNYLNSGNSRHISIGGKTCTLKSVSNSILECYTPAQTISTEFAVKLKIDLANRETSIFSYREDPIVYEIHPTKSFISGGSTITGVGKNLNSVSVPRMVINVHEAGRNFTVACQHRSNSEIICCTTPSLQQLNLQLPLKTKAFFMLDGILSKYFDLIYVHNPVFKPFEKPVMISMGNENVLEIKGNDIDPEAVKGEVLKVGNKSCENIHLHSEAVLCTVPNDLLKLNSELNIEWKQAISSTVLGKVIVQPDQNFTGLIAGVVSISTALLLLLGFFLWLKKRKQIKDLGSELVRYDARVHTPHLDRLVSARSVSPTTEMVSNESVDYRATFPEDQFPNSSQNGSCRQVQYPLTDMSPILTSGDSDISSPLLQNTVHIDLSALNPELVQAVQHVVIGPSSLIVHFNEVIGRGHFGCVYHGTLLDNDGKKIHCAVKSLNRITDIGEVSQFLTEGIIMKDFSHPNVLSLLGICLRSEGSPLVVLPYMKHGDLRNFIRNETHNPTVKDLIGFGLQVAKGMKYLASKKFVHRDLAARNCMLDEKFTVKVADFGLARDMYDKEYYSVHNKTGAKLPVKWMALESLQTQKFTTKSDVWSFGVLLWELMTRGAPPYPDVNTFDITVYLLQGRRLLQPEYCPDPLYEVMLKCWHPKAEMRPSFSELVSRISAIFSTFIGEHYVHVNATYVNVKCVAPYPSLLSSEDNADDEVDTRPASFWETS

BT-483 [16] = experiment: Upregulation of cytochrome-c protein expression in human BT-483 cells at 5 to 10 uM by Western blot analysis; type: functional, cell-based
[17] = target: Vascular endothelial growth factor receptor 2 (Homo sapiens) (UniProt P35968); experiment: Inhibition of wild-type human partial length VEGFR2 (R787 to P1253 residues) expressed in mammalian expression system assessed as residual activity at 1 uM by Kinomescan method relative to control
BT-483 [18] = experiment: Induction of apoptosis in human BT-483 cells assessed as necrotic cells at 10 uM by Annexin V-FITC/propidium iodide staining based flow cytometry (reference value: 0.18%); type: functional
MDA-MB-468 = experiment: Cytotoxicity against human MDA-MB-468 cells after 24 hrs by MTT assay; type: functional, cell-based
[19] = target: Epidermal growth factor receptor (Homo sapiens) (UniProt P00533); experiment: Inhibition of wild-type human partial length EGFR (R669 to V1011 residues) expressed in bacterial expression system assessed as residual activity at 1 uM by Kinomescan method relative to control
Chain of Epidermal growth factor receptor (Homo sapiens) (P00533 whole entry, the tested form may be a part): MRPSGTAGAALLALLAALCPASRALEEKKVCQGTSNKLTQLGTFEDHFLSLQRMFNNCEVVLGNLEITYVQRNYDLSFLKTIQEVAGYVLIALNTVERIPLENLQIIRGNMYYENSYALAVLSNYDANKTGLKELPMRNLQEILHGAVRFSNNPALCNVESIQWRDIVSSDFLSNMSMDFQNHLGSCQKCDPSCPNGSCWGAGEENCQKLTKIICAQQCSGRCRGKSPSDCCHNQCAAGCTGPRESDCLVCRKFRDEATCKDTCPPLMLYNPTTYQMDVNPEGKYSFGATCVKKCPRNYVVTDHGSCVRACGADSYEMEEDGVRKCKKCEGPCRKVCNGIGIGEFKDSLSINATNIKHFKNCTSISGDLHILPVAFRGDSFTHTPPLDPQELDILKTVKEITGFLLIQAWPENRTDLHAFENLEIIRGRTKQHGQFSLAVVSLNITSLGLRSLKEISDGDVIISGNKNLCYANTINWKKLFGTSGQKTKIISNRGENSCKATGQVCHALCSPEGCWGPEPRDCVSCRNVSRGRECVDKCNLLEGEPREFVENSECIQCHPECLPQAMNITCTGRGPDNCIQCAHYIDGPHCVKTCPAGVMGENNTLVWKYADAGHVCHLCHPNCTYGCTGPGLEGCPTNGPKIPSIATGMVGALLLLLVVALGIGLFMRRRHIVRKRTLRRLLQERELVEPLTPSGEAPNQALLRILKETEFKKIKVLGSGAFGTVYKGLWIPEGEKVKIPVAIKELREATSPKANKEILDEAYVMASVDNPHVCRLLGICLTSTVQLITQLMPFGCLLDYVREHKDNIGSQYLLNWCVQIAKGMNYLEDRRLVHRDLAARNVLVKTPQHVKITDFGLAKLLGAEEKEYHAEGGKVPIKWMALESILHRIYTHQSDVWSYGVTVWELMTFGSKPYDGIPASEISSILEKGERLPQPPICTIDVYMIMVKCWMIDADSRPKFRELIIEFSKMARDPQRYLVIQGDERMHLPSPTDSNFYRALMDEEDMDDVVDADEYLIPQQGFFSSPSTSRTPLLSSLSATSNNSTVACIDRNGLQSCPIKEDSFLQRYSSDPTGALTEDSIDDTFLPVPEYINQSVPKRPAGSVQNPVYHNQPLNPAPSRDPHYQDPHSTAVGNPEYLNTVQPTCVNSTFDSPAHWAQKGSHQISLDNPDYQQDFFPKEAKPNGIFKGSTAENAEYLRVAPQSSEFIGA

[20] = target: Dual specificity tyrosine-phosphorylation-regulated kinase 1B (Homo sapiens) (UniProt Q9Y463); experiment: Inhibition of wild-type human full length DYRK1B (M1 to S629 residues) expressed in bacterial expression system assessed as residual activity at 1 uM by Kinomescan method relative to control
BT-483 [21] = experiment: Induction of apoptosis in human BT-483 cells assessed as early apoptotic cells at 5 uM by Annexin V-FITC/propidium iodide staining based flow cytometry (reference value: 2.01%); type: functional
[22] = target: Rho-associated protein kinase 1 (Homo sapiens) (UniProt Q13464); experiment: Inhibition of wild-type human partial length ROCK1 (M1 to R415 residues) expressed in mammalian expression system assessed as residual activity at 1 uM by Kinomescan method relative to control
[23] = target: Dual specificity mitogen-activated protein kinase kinase 1 (Homo sapiens) (UniProt Q02750); experiment: Inhibition of wild-type human full length MEK1 (M1 to V393 residues) expressed in mammalian expression system assessed as residual activity at 1 uM by Kinomescan method relative to control
Chain of Dual specificity mitogen-activated protein kinase kinase 1 (Homo sapiens) (Q02750 whole entry, the tested form may be a part): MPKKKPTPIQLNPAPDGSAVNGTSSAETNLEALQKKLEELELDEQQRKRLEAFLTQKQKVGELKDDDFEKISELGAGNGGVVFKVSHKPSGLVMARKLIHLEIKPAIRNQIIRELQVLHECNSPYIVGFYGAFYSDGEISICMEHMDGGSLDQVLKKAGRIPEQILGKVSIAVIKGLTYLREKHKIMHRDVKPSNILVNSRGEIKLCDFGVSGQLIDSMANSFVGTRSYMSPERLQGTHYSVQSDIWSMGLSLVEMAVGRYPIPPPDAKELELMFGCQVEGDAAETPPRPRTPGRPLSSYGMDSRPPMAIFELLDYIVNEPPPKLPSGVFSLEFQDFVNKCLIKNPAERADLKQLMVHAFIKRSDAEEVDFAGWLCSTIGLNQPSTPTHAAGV

[24] = target: Tyrosine-protein kinase ZAP-70 (Homo sapiens) (UniProt P43403); experiment: Inhibition of wild-type human partial length ZAP70 (D20 to G299 residues) expressed in mammalian expression system assessed as residual activity at 1 uM by Kinomescan method relative to control
[25] = target: Platelet-derived growth factor receptor alpha (Homo sapiens) (UniProt P16234); experiment: Inhibition of wild-type human partial length PDGFRA (V575 to D1002 residues) expressed in mammalian expression system assessed as residual activity at 1 uM by Kinomescan method relative to control
[26] = target: Casein kinase I isoform delta (Homo sapiens) (UniProt P48730); experiment: Inhibition of wild-type human full length CSNK1D (M1 to K409 residues) expressed in bacterial expression system assessed as residual activity at 1 uM by Kinomescan method relative to control
Chain of Casein kinase I isoform delta (Homo sapiens) (P48730 whole entry, looked up, the tested form may be a part, canonical isoform): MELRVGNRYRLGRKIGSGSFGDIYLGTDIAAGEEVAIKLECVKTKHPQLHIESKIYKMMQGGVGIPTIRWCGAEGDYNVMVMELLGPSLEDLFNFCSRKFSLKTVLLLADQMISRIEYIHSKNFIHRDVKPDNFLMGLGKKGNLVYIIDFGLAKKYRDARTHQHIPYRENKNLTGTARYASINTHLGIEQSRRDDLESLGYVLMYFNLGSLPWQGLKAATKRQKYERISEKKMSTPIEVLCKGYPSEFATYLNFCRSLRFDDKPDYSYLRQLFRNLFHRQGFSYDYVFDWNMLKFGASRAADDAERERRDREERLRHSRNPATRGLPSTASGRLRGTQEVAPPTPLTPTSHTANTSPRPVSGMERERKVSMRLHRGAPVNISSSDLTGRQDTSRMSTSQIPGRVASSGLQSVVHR

[27] = target: Focal adhesion kinase 1 (Homo sapiens) (UniProt Q05397); experiment: Inhibition of wild-type human partial length FAK (D402 to R696 residues) expressed in bacterial expression system assessed as residual activity at 1 uM by Kinomescan method relative to control

Chain of Serine/threonine-protein kinase PLK1 (P53350 whole entry, the tested form may be a part): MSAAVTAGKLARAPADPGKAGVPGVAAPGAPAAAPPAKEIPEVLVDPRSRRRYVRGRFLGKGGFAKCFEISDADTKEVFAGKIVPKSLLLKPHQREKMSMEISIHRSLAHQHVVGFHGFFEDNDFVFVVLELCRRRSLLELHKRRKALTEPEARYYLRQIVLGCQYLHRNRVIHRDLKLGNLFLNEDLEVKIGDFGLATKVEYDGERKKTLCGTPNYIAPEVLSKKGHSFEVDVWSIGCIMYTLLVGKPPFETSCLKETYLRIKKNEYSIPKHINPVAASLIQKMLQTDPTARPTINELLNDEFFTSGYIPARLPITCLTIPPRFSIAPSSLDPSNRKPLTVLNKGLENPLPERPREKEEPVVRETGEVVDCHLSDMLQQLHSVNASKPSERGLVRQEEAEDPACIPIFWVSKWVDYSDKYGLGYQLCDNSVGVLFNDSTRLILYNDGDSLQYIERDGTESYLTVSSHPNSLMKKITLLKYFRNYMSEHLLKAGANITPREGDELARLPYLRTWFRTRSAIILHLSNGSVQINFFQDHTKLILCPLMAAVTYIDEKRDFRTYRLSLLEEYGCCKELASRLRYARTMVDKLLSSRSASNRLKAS

**Q.** What does the source list for `CCNc1cc(-c2ccc(NC(=O)Nc3cccc(Cl)c3)cc2C(F)(F)F)ccn1`?
**A.** inhibition [1]: 94.9%; Activity [2]: 100%; Activity (BT-483 [3]): Active; Activity (BT-483 [4]): Active; Activity [5]: 98%; Activity [6]: 85%; Activity [7]: 95%; Activity [8]: 75%; Activity [9]: 60%; Activity [10]: 70%; Activity [11]: 100%; Activity [12]: 98%; Activity [13]: 87%; Activity [14]: 95%; Activity [15]: 73%; Activity (BT-483 [16]): Active; Activity [17]: 60%; Activity (BT-483 [18]): 0.48%; Activity (MDA-MB-468): Active; Activity [19]: 90%; Activity [20]: 93%; Activity (BT-483 [21]): 8.64%; Activity [22]: 70%; Activity [23]: 96%; Activity [24]: 71%; Activity [25]: 79%; Activity [26]: 86%; Activity [27]: 76%

Source: ChEMBL document CHEMBL4251622, “Design, synthesis, and biological evaluation of polo-like kinase 1/eukaryotic elongation factor 2 kinase (PLK1/EEF2K) dual inhibitors for regulating breast cancer cells apoptosis and autophagy” (Eur J Med Chem, 2018)
